From patent US9115122B2, “Non-ATP dependent inhibitors of extracellular signal-regulated kinase (ERK)” (UNIVERSITY OF MARYLAND, BALTIMORE, priority 2012, dated 2015)

Key:
[1] = target: ERK2 (Rattus norvegicus (Rat), UniProt P63086); assay: Binding of DRS compound to ERK2 (FIG. 10)
[2] = test system: A375 melanoma cells; assay: Proliferation of A375 melanoma cells (Example 3); type: cell-based
Source text: We examined the effects of these compounds on proliferation of A375 melanoma cells with BRaf mutations that require ERK activation for survival.
Moreover, 76.3 and TMZ also appeared to delay tumor growth in mice harboring A375 tumors indicative of prolonged survival (FIG. 13B).

[3] = test system: A375 melanoma cells; assay: Cell proliferation, fluorescent Cell Titer Blue Assay (Example 1); type: cell-based; settings: Homo sapiens, A-375; 48 hours
Method: (§1) FIG. 5. Dose dependent inhibition of cancer cell proliferation in vitro by SF-3-026 and analogs. A375 (closes circles), RPM17951 (closed squares), HeLa (open circles), or Jurkat (open squares) cells were treated for 48 hours with indicated concentration of (a) SF-3-026, (b) SF-2-027, (c) SF-2-029, or (d) SF-2-030 and cell proliferation was assessed by the fluorescent Cell Titer Blue Assay. The data were reproduced in 3 separate experiments.
(§2) Cells were seeded at 25,000 cells/well in 96-well plate and cultured overnight. Cells were treated for 24 hours with various concentrations of compounds and cell viability or caspase 3/7 activity were measured according to manufacturer's instructions using the fluorescent Cell Titer Blue Assay (Promega) or luminescent Caspase 3/7 Glo Assay (Promega).
(§3) It was next determined whether inhibition of AP-1 proteins by SF-3-026 and analogs affected the proliferation of cancer cells driven by mutations that constitutively activate the ERK1/2 pathway. For these experiments, A375 and RPMI7951 melanoma cells, which have a valine to glutamate mutation on residue 600 in BRaf that causes constitutive ERK1/2 activation, were chosen. Moreover, RPMI7951 cells are resistant to clinically used BRaf inhibitors due to overexpression of MAP3K8 (the gene encoding COT/Tp12) that re-activates ERK1/2 signaling. Both melanoma cells lines were treated with varying doses of SF-3-026 or analogs and cell viability was compared to HeLa cervical carcinoma and Jurkat T-cell leukemia cells, which are p53 defective but contain no known activating mutations in the ERK1/2 pathway.

[4] = test system: HeLa cervical carcinoma cells; assay: as above; type: cell-based; settings: Homo sapiens, 48 hours
Method: as §1, §2, §3

[5] = test system: Jurkat T-cell leukemia cells; assay: as above; type: cell-based; settings: Homo sapiens, 48 hours
Method: as §1, §2, §3

[6] = test system: RPMI7951 melanoma cells; assay: as above; type: cell-based; settings: Homo sapiens, RPMI-7951; 48 hours
Method: as §1, §2, §3

[7] = test system: AP-1 promoter; assay: AP-1 promoter luciferase assay, EGF-stimulated HeLa cells (Example 1); type: cell-based; settings: Homo sapiens, EGF stimulation, 4 hours, read-out: IC50 inhibition of the AP-1 promoter
Method: FIG. 4. Compound SF-3-026 and analogs inhibit SRE and AP-1 transcription factor function. (a) HeLa cells were transfected with constructs containing SRE or AP-1 promoters driving luciferase expression and then stimulated with EGF in the presence or absence of SF-3-026 for 4 hours followed by measurements of luciferase activity. Cells treated with U0126 were used as a positive inhibitor control. (b and c) HeLa cells were prepared and treated as in (a) with the indicated concentrations of SF-3-026 or analogs for 4 hours followed by the measurement of luciferase activity regulated by the SRE (b) or AP-1 (c) promoters. Data in (b and c) were normalized to EGF-only treatment and represent the mean and standard deviation from three independent experiments. (d) Compound SF-3-026 and analogs inhibit MEK1-induced AP-1 transcription factor function. […]
HeLa cells were seeded in 24-well plates (40,000 cells/well) and incubated 18 hours to achieve ˜60-70% confluent. […] The luciferase activity in the cell extracts was determined with a Dual Luciferase Assay System (Promega) according to the manufacturer's instructions. Luciferase activities were monitored with a Lumat LB 9507 luminometer (Berthold Technology) and data were normalized to the amount of protein in each sample. […]

[8] = test system: MEK1-induced AP-1 promoter activity; assay: AP-1 promoter luciferase assay, HeLa cells expressing active MEK1 mutant; type: cell-based; settings: Homo sapiens, 4 hours, read-out: IC50 inhibition of MEK1-induced AP-1 promoter activity
Method: FIG. 4. Compound SF-3-026 and analogs inhibit SRE and AP-1 transcription factor function. (a) HeLa cells were transfected with constructs containing SRE or AP-1 promoters driving luciferase expression and then stimulated with EGF in the presence or absence of SF-3-026 for 4 hours followed by measurements of luciferase activity. Cells treated with U0126 were used as a positive inhibitor control. (b and c) HeLa cells were prepared and treated as in (a) with the indicated concentrations of SF-3-026 or analogs for 4 hours followed by the measurement of luciferase activity regulated by the SRE (b) or AP-1 (c) promoters. Data in (b and c) were normalized to EGF-only treatment and represent the mean and standard deviation from three independent experiments. (d) Compound SF-3-026 and analogs inhibit MEK1-induced AP-1 transcription factor function. HeLa cells were transfected with the AP-1 promoter construct and a constitutively active MEK1 mutant in the presence (10 μM) or absence of the MEK1/2 inhibitor (U0126) or an ATP-competitive ERK inhibitor (ERKi) for 4 hours followed by measurements of luciferase activity. (e) Cells expressing the AP-1 promoter and an active MEK-1 construct were treated with the indicated concentrations of SF-3-026 or analogs for 4 hours followed by the measurement of luciferase activity. Data in (e) were normalized to active MEK1-only treatment and represent the mean and standard deviation from three independent experiments.
HeLa cells were seeded in 24-well plates (40,000 cells/well) and incubated 18 hours to achieve ˜60-70% confluent. Cells were transfected with activator protein-1 (pAP1(PMA)-TA-Luc; Clontech) or the serum response element (pGL4.33-SRE; Promega) luciferase reporter plasmids (250 ng/well) using Lipofectamine™ (Invitrogen). After 16 hours, cells were pre-treated with varying amounts of compounds as indicated for 20 minutes, followed by stimulation with EGF (25 ng/mL) for 4.5 hr. In some experiments, cells transfected with the pAP1(PMA)-TA-Luc promoter and a constitutively active MEK1 mutant cDNA were treated with varying amounts of compounds during the last 4 hours of incubation. The luciferase activity in the cell extracts was determined with a Dual Luciferase Assay System (Promega) according to the manufacturer's instructions. Luciferase activities were monitored with a Lumat LB 9507 luminometer (Berthold Technology) and data were normalized to the amount of protein in each sample. […]

[9] = test system: A375 melanoma cells; assay: Caspase 3/7 Glo Assay; type: cell-based; settings: varying doses, 24 hours
Method: FIG. 6. SF-3-030 induces growth inhibition and apoptosis in A375 melanoma cells. A375 were seeded in a 96-well plate and incubated for 18-20 hours. Cells were treated with varying concentrations of SF-3-030 and allowed to incubate for an additional 24 hours. Cell viability was measured using the fluorescent Cell Titer Blue Assay and caspase 3/7 activity was measured using the luminescent Caspase 3/7 Glo Assay. Data represent the average of two experiments performed in duplicate.
as §2
(§4) To test whether the inhibition of cell proliferation was due to an apoptotic response, A375 and HeLa cells were treated with varying doses of SF-3-030 and cell viability along with caspase 3/7 activity was measured.

[10] = test system: HeLa cells; assay: Caspase 3/7 Glo Assay; type: cell-based; settings: varying doses
Method: as §2, §4

[11] = test system: c-Fos, Fra1, and FosB expression; assay: Immunoblot of EGF-induced c-Fos, Fra1 and FosB expression in HeLa cells; type: cell-based; settings: EGF 25 ng/mL
Method: FIG. 3. EGF-mediated induction of AP-1 proteins is inhibited by SF-3-026 and SF-3-030. (a) HeLa cells were treated for 10, 30, or 60 min. with EGF (25 ng/mL) in the presence of 50 μM SF-3-026 or 10 μM U0126. Protein lysates were immunoblotted for c-Fos, Fra1, FosB and FosB2. Phosphorylated ERK1/2 is not affected by SF-3-026 and α-tubulin expression is shown for a protein loading control. (b) Protein lysates from HeLa cells treated for 30 min. with EGF in the absence or presence of 10, 25, 50, or 100 μM of SF-3-026 or SF-3-030 were immunoblotted for c-Fos, Fra1, FosB, FosB2, as well as phosphorylated ERK1/2 and MEK1/2. Total ERK2 and α-tubulin expression are shown for protein loading controls. Data are representative of three independent experiments.
Analysis of protein expression levels, activity, and cell proliferation were done as previously described. […] Proteins were separated by SDS-PAGE, analyzed by immunoblotting, and detected using enhanced chemiluminescence (ECL, GE Healthcare, United Kingdom).
The reported half-life for c-Fos is ˜10 minutes and growth factor-mediated stabilization of c-Fos protein expression can be observed within 30-60 minutes, whereas stabilization of Fra1 protein is delayed due to AP-1 regulation of the Fra1 promoter. Thus, growth factor-mediated induction of c-Fos, Fra1, and FosB expression was evaluated following treatment with SF-3-026. […]

ERK2, sequence (P63086 whole entry): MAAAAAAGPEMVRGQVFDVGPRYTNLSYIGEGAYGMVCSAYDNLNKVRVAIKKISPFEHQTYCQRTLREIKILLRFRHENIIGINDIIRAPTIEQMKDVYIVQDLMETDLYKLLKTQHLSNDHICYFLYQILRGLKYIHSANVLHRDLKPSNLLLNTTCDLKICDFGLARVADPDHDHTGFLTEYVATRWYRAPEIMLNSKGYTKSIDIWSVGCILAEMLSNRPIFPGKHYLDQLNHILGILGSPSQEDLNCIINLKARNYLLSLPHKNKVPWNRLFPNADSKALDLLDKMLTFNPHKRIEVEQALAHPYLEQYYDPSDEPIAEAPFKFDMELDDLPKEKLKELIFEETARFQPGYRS

SMILES	affinity (site 1 on ERK2) [1]	effect on A375 cell proliferation [2]	GI50 [3]	GI50 [4]	GI50 [5]	GI50 [6]	IC50 [7]	IC50 [8]	caspase 3/7 activity in A375 cells [9]	caspase 3/7 activity in HeLa cells [10]	inhibition of EGF-induced c-Fos, Fra1, and FosB expression [11]
CCOc1ccc(/C=C2\SC(=O)N(CCNc3nc(Cl)nc(Cl)n3)C2=O)cc1 [SF-2-054]	high nM affinity	selective inhibition of A375 cells									
O=S1(=O)C=CC(OS(=O)(=O)c2ccc3c(c2)CC=CC3)C1 (centres unmarked) [SF-3-030]			7.1 µM	29 µM	> 50 µM	4.6 µM	< 10 µM	5 to 10 µM	dose dependent increase	did not show increased caspase 3/7 activity	higher potency
